Two compounds from ChEMBL document CHEMBL1128042, “The effect of fluorine substitution on the haemotoxicity of Primaquine” (1995) can be followed below.

The species entered for this assay is Mus musculus. Description: Antimalarial activity was evaluated against Plasmodium berghei in female CD1 mice (Mus musculus) (20-25g). Type of assay: functional.

As for `COc1cc(NC(C)CCCN)c2ncccc2c1F` (configuration not stated), the ED50 (commonly the midpoint of the dose-response relation) came to 7.78 µmol/kg.

As to `COc1cc(NC(C)CCCN)c2ncccc2c1` (configuration not stated) [PRIMAQUINE], the 50% effective dose (ED50) was determined as 2.2 µmol/kg.
